Legend:
Format in all cases: in vivo, rat
[1] = Breeding process: body weight and ingested amount of feed in rats on 20% lard food with 1% cholesterol; details: 0.1 mmol per kg feed, mean ± SD
Experimental: (§1) Twenty-four nine-week old male Wistar strain rats were used and divided into four groups each comprising six rats, including a control group, a 0.1 mmol/kg capsaicin group, a 0.1 mmol/kg capsinoid group, and a 1.0 mmol/kg capsinoid group. A 20% lard food to which 1% cholesterol was added was administered as a feed to the control group. For the remaining three groups, capsaicin of 0.1 mmol per kg final concentration of the feed, capsinoid of 0.1 mmol per kg final concentration of the feed, and capsinoid of 1.0 mmol per kg final concentration of the feed, respectively, were added to the feed, similar to the control group. The capsinoid was a mixture of 4-hydroxy-3-methoxybenzyl (E)-8-methyl-6-nonenoate and 4-hydroxy-3-methoxybenzyl 8-methylnonanoate in about 2:1 ratio.
(§2) The above groups each comprising six rats were subjected to pair feeding for four weeks. Breeding of the experimental animals was conducted in each individual cage and, during the breeding period, body weight was measured once a week and ingested amount of the feed was calculated by deducting the residue from the administered amount. Feces were collected for three days before dissection. After completion of breeding, the rats were sacrificed and dissected. Blood was collected. The liver, the fat around the kidney, and the fat around the epididymis were each separately excised and weighed. Furthermore, the ratio of the excised organs to the total body weight was calculated. Unless otherwise mentioned, the results in the following tables are shown in terms of mean value±standard deviation and, statistically, test of significance was conducted at p<0.05 by ANOVA and Duncan's multiple range test. In the tables, * means p<0.05.

male Wistar strain rats [2] = test: Excretion of cholesterol into feces during three days before dissection; details: 0.1 mmol per kg feed, mean ± SD
Experimental: as §1
The above groups each comprising six rats were subjected to pair feeding for four weeks. Breeding of the experimental animals was conducted in each individual cage and, during the breeding period, body weight was measured once a week and ingested amount of the feed was calculated by deducting the residue from the administered amount. Feces were collected for three days before dissection. After completion of breeding, the rats were sacrificed and dissected. Blood was collected. […] Furthermore, the ratio of the excised organs to the total body weight was calculated. […]

male Wistar strain rats [3] = test: Weight of liver, fat around kidney and fat around epididymis, and ratio to total body weight; details: 0.1 mmol per kg feed, four weeks
Experimental: as §1, §2

male Wistar strain rats [4] = test: Influence on serum cholesterol and arteriosclerosis index; details: 0.1 mmol per kg feed, four weeks, * p<0.05
Experimental: as §1, §2
Blood was collected from the experimental animals bred as above and total cholesterol (T-chol) and HDL cholesterol (HDL-chol) in the serum was measured. More specifically, total cholesterol and HDL cholesterol were measured according to a method disclosed in “Akiko Tsujihara and Yumiko Tani: Influence of yucca saponin and pure konjak powder on lipid metabolism of rats fed with a high-fat and high-cholesterol feed: Eiyo Shokuryo Gakkaishi, vol. 51, pp. 157-163 (1998)”. The Arteriosclerosis index was calculated by (T-chol-HDL-chol)/(HDL-chol). The results are shown in Table 4, including the amount of triglyceride in the serum (TG).

Which “Body Weight (g) on Dissected Day” value ([1]; four weeks) does the source give for `COc1cc(CNC(=O)CCCC/C=C/C(C)C)ccc1O` [Capsaicin, capsaicin] here?
Its value is 367 ± 12 g.

What about the “Percentage Increase in Body Weight” value ([1]; four weeks) of the same molecule?
Its value is 133 ± 4%.

And the “Body Weight (g) on Final Day of Breeding” value ([1]; pair feeding four weeks)?
Its value is 392 ± 11 g.

And the “Cholesterol in Feces, Excreted Amount” value (male Wistar strain rats [2])?
The value was 240 ± 27 mg/3 days.

And the “Cholesterol in Feces, Excreted Rate” value (male Wistar strain rats [2])?
Its value is 48.6 ± 3.4%.

What about the “Fat (g) around Epididymis” value (male Wistar strain rats [3]; mean ± SD) of the same molecule?
The value was 4.6 ± 0.5 g.

What about the “Fat (g) around Kidney” value (male Wistar strain rats [3]; mean ± SD) of the same molecule?
Its value is 3.8 ± 0.6 g.

What about the “Liver” value (male Wistar strain rats [3]; mean ± SD) of the same molecule?
Its value is 14.4 ± 0.9 g.

And the “Fat (%) around Epididymis” value (male Wistar strain rats [3]; ratio to total body weight)?
The value was 1.3 ± 0.1%.

What about the “Fat (%) around Kidney” value (male Wistar strain rats [3]; ratio to total body weight) of the same molecule?
Its value is 1.0 ± 0.1%.

And the “Liver (%)” value (male Wistar strain rats [3]; ratio to total body weight, * p<0.05)?
Its value is 3.9 ± 0.1* %.

What about the “Arteriosclerosis Index” value (male Wistar strain rats [4]; (T-chol-HDL-chol)/(HDL-chol)) of the same molecule?
Its value is 1.2 ± 0.4.

And the “HDL-chol (HDL cholesterol in serum)” value (male Wistar strain rats [4]; serum, mean ± SD)?
Its value is 34.2 ± 6.5* mg/dl.

What about the “T-chol (total cholesterol in serum)” value (male Wistar strain rats [4]; serum, mean ± SD) of the same molecule?
Its value is 71.2 ± 8.1* mg/dl.

What about the “TG (triglyceride in the serum)” value (male Wistar strain rats [4]; serum, mean ± SD) of the same molecule?
Its value is 25.5 ± 5.3* mg/dl.

Source: patent publication US7414075B2, “Composition for lowering internal lipid content” (Ajinomoto Co., Inc., priority 2003, dated 2008)
